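Briefly, cells in 96-well plates were exposed to five compound concentrations for 48 h, and endpoints were estimated by linear interpolation. Abbreviation: GI50, concentration required for 50% inhibition of growth.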 Calls of active or inactive are those of the source. Cut-off read from the data, not from the text of the source: active = GI50 up to about 1.1 µM and inactive = higher.
How the values were obtained:
Assay in all cases: DTP human tumour cell line panel, 48 h
M19-MEL = tested on: M19-MEL
LXFL 529 = tested on: LXFL 529
XF498 = tested on: XF498
DMS-273 = tested on: DMS-273
KM-20L2 = tested on: KM-20L2
DMS-114 = tested on: DMS-114
RXF 631 = tested on: RXF 631
HOP-18 = tested on: HOP-18
DLD-1 = tested on: DLD-1

Measured: GI50

Cc1cccc(C(C)C)c1NC(=O)C(=O)C(C(=O)c1ccccc1F)C1OC(=O)c2ccccc21 (configuration not stated)
inactive: M19-MEL 11.5 µM | LXFL 529 11.9 µM | XF498 10.4 µM | DMS-273 19 µM | KM-20L2 29.2 µM | DMS-114 10.2 µM | RXF 631 18.6 µM | HOP-18 3.59 µM | DLD-1 14.8 µM

CC1=C(C(=O)CC(=O)C(=O)Nc2ccc(Cl)cc2C)Sc2ccccc2N1
inactive: M19-MEL > 100 µM | LXFL 529 > 100 µM | XF498 > 100 µM | DMS-273 > 100 µM | KM-20L2 > 100 µM | DMS-114 > 92.7 µM | RXF 631 > 100 µM | HOP-18 > 100 µM | DLD-1 > 100 µM

C/C1=C/C2OC(=O)C3(C)C2C(CC2(C)OC1=CC2=O)OC3(O)C(C)C (configuration not stated)
inactive: M19-MEL 34.4 µM | LXFL 529 27.4 µM | XF498 23.7 µM | DMS-273 33 µM | KM-20L2 21.8 µM | DMS-114 14.3 µM | RXF 631 33.1 µM | HOP-18 37.8 µM | DLD-1 32.7 µM

From ChEMBL document CHEMBL1201862, “PubChem BioAssay data set” (2004)
